Results: PubChem BioAssay (NCI)
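48-hour exposure; five concentrations; linearly interpolated endpoints. The concentration for 50% growth inhibition is given as GI50. TGI: concentration producing complete growth inhibition.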

Tests used:
Experiment in all cases: NCI tumour cell line growth inhibition, 48 h
CCRF-CEM leukemia = test system: CCRF-CEM leukemia
DU-145 prostate = test system: DU-145 prostate
HCT-15 colon = test system: HCT-15 colon
M14 melanoma = test system: M14 melanoma
NCI/ADR-RES ovarian = test system: NCI/ADR-RES ovarian
PC-3 prostate = test system: PC-3 prostate
SNB-19 CNS = test system: SNB-19 CNS
SR leukemia = test system: SR leukemia
TK-10 renal = test system: TK-10 renal
UACC-62 melanoma = test system: UACC-62 melanoma

| Compound | TGI (CCRF-CEM leukemia) [µM] | TGI (DU-145 prostate) [µM] | TGI (HCT-15 colon) [µM] | TGI (M14 melanoma) [µM] | TGI (NCI/ADR-RES ovarian) [µM] | TGI (PC-3 prostate) [µM] | TGI (SNB-19 CNS) [µM] | TGI (SR leukemia) [µM] | TGI (TK-10 renal) [µM] | TGI (UACC-62 melanoma) [µM] | GI50 (CCRF-CEM leukemia) [µM] | GI50 (DU-145 prostate) [µM] | GI50 (HCT-15 colon) [µM] | GI50 (M14 melanoma) [µM] | GI50 (NCI/ADR-RES ovarian) [µM] | GI50 (PC-3 prostate) [µM] | GI50 (SNB-19 CNS) [µM] | GI50 (SR leukemia) [µM] | GI50 (TK-10 renal) [µM] | GI50 (UACC-62 melanoma) [µM] |
| --- | --- | --- | --- | --- | --- | --- | --- | --- | --- | --- | --- | --- | --- | --- | --- | --- | --- | --- | --- | --- |
| CC12CCCCC1=[N+]([O-])C(C)(C)N2O (stereo not given) | > 100 | > 100 | > 100 | > 100 | > 100 | > 100 | > 100 | > 100 | > 100 | > 100 |  |  |  |  |  |  |  |  |  |  |
| COCC1OC(S(=O)(=O)c2ccccc2)C(O)C(OC)C1OC (stereo not given) | > 100 | > 100 | > 100 | > 100 | > 100 | > 100 | > 100 | > 100 | > 100 | > 100 |  |  |  |  |  |  |  |  |  |  |
| CN(C)c1ccc(/C=C/C(=O)N[C@@H]2C(=O)N3[C@@H]2SC(C)(C)[C@@H]3C(=O)O)cc1 | > 100 | > 100 | > 100 | > 100 | > 100 | > 100 | > 100 | > 100 | > 100 | > 100 |  |  |  |  |  |  |  |  |  |  |
| C=C(C)C1CC/C(C)=C/CC[C@]2(C)O[C@@H]2CCC2=CC1OC2=O (stereo not given in full) | 21.9 | > 100 | > 100 | > 100 | > 100 | > 100 | > 100 | 51.5 | > 100 | > 100 | 10.3 | 18.4 | 42.3 | 37.2 | > 100 | 48.9 | > 100 | 19 | 15.7 | 78.8 |
| Cc1ccc(NC2=NCCO2)c2c1CCC2 | > 100 | > 100 | > 100 | 57 | 50 | > 100 | > 100 | 53.3 | > 100 | > 100 |  |  |  |  |  |  |  |  |  |  |
| Cc1ccc(-n2cc(-c3ccc(Cl)cc3)c3c(NN)ncnc32)cc1 | 2.52 | 12.8 | 26.1 | 3.75 | 15.3 | 56.1 | 40.9 | 9.28 | > 100 | 13.2 |  |  |  |  |  |  |  |  |  |  |
| CN(C(=O)c1ccc2c(c1)sc1c(=O)n(C)c3ccccc3c12)c1ccccc1 | > 100 | > 100 | > 100 | > 100 | > 100 | > 100 | > 100 | > 100 | > 100 | > 100 |  |  |  |  |  |  |  |  |  |  |
| COC(=O)c1c(CC(Cc2ccc3c(c2)CCCC3)C(=O)OC)ccc2c1CCCC2 (stereo not given) | > 100 | > 100 | > 100 | > 100 | > 100 | > 100 | > 100 | 86.7 | > 100 | > 100 |  |  |  |  |  |  |  |  |  |  |
